Data on 13 compounds can be found in patent publication US20190077724A1, “COMPOSITIONS AND METHODS FOR CROP NUTRITION” (AdvanSix Resins & Chemicals LLC, priority 2017, published 2019).

A value given as a limit tells only on which side of the number the result lay.

The nature of this data set: NBPT comparative solubility in solvents. The class given is physicochemical. The following applies: room temperature; for maximum weight percentage of NBPT dissolved in the solvent: vials with 20, 30, 40 and 50 wt. % NBPT. How it is done: The solubility of the N-(n-butyl) thiophosphoric triamide (NBPT) was determined for thirteen solvents. Three of the solvents were caprolactam-derived solvents in accordance with compositions of this disclosure. The remaining ten were comparative solvents. The NBPT was 98% (HPLC) obtained from AK Scientific, Inc., Union City, California. The N-methyl-2-pyrrolidone was at least 99% pure and obtained from Sigma Aldrich of St. Louis, Missouri. The N-butyl-2-pyrrolidone was at least 98% pure and obtained from TCI America of Portland, Oregon. The methyl-5-(dimethylamino)-2-methyl-5-oxopentanoate/propylene glycol was 70-90% pure and obtained from Solvay S. A. of Princeton, N.J.
The solubility of NBPT was evaluated for each solvent by preparing four, 2 ml vials containing 20 wt. %, 30 wt. %, 40 wt. % and 50 wt. % of NBPT. To prepare the 20 wt. % vial, 0.040 g of NBPT was added to 0.160 ml of solvent. To prepare the 30 wt. % vial, 0.060 g of NBPT was added to 0.140 ml of solvent. To prepare the 40 wt. % vial, […] of NBPT was added to 0.120 ml of solvent. To prepare the 50 wt. % vial, 0.100 g of NBPT was added to 0.100 ml of solvent. The vials were capped and swirled at room temperature until no change in solubility was observed.
Solvents 1-3 are in accordance with compositions of the present disclosure. Solvents 4-13 are comparative solvents.

Consider `COC(=O)CCCCC(=O)N(C)C` [N,N-dimethyladipamide methyl ester], for which the “maximum weight percentage of NBPT dissolved in the solvent” value (“maximum weight percentage” below) is 40%.
Turning to `CCCCCCCCCC(=O)N(C)C` [N,N-dimethyldecanamide], the “maximum weight percentage” value is given as 20%.
Same read-out and setting: the figure for `N#CCCN1CCCCCC1=O` [N-(2-cyanoethyl)caprolactam] is under 20%; for `CCCCN1CCCC1=O` [N-butyl-2-pyrrolidone] it is 50%.
For `CCCCN1CCCCCC1=O` [N-butylcaprolactam], the “NBPT dissolving performance compared with NMP” value was “performed nearly as well as NMP” and the “maximum weight percentage” value is given as 40%.
Taken in the same sequence, the figures for `CCN1CCCCCC1=O` [N-ethylcaprolactam] were “performed as well as NMP” and 50%.
With `CN1CCCC1=O` [N-methyl-2-pyrrolidone], the “maximum weight percentage” value amounted to 50%.
Turning to `CN1CCCCCC1=O` [N-methylcaprolactam], the “NBPT dissolving performance compared with NMP” value was “performed as well as NMP” and the “maximum weight percentage” value is given as 50%.
For the compound `O=C1CCCCC1` [cyclohexanone], the “maximum weight percentage” value turned out to be 40%.
On the same count and under the same terms, in the case of `CC(=O)OC1CCCCC1` [cyclohexyl acetate] it was under 20%; in that of `CCCC(=O)OC1CCCCC1` [cyclohexyl butyrate], under 20%; in that of `COC1CCCCC1` [cyclohexyl methyl ether], under 20%.
On the same count and under the same terms, the figure for `COC(=O)C(C)CCC(=O)N(C)C` (stereo not shown) [methyl-5-(dimethylamino)-2-methyl-5-oxopentanoate] is 30%.
